Test results taken from patent US8088623B2, “Dominant selection marker for the transformation of fungi” (priority 2003, dated 2012).
In brackets after ≈: the same amount, converted by molar mass.

What was measured:
[1] = tested on: MF-ACC purified from Ustilago maydis; conditions: cited from earlier work
[2] = tested on: MF-ACC purified from rat liver; conditions: cited from earlier work
[3] = tested on: Pichia pastoris transformant HWA3; experiment: Soraphen A sensitivity of transformant HWA3 (accA, accC, accD) on MM plates; format: cell-based; conditions: 30° C., six days
Description: (§1) Transformation of spheroplasts was carried out with 10 μg of Sal I-linearized plasmid pAO815-ACC3 or pAO815-ACC4 following the manufacturer's instructions. Transformants were selected on RDB plates and in a second selection round the obtained histidine prototroph clones were tested for Soraphen A sensitivity on MM plates containing Soraphen A (0-0.1 μg/ml).

MS-ACC from E. coli = target: T1, MS-ACC from E. coli (Escherichia coli, UniProt P24182); experiment: Sensitivity of prokaryotic MS-ACC to inhibition
T1 construct: expressed in transfected cells; host or cells: Pichia pastoris GS115 transformed with pAO815-ACC4 (strain HWA4)

Ustilago zeae = conditions: cited from earlier work
[4] = tested on: filamentous fungi and yeasts; conditions: growth of numerous filamentous fungi and yeasts; cited from earlier work
[5] = tested on: acetyl-CoA carboxylase (ACC) of yeast and filamentous fungi; conditions: cited from earlier work
bacteria or prokaryotes = conditions: cited from earlier work
Mucor hiemalis = conditions: cited from earlier work
[6] = tested on: Pichia pastoris strain GS115; experiment: Soraphen A sensitivity of recipient strain GS115 on MM plates; format: cell-based; conditions: point and surface inoculation, 30° C., six days
Description: Two methods were used to determine the concentration of Soraphen A inhibitory to the growth of P. pastoris GS115. On the one hand MM plates containing 0 to 0.1 μg/ml Soraphen A were locally inoculated with 10^6 to 10^2 cells. On the other hand 5000 cells were streaked onto such plates. Inokulations were incubated in duplicate at 30° C. for six days; 100 μl of 100% methanol was added daily to the lid of the inverted plates.

[7] = tested on: Pichia pastoris transformant HWA4; experiment: Soraphen A sensitivity of transformant HWA4 (accA-D) on MM plates; format: cell-based; conditions: 30° C., six days
Description: as §1

[8] = tested on: Pichia pastoris transformant HWA3p; conditions: MM plates, 30° C., six days
Description: For transformation by electroporation, 3-12 μg of Sal I-linearized plasmid pPIC3.5K-BCCP was mixed with the competent cells and pulsed in 0.1 cm electroporation cuvettes at 1.5 kV, 25 μF, and 200Ω using a Gene Pulser (Bio-Rad). Immediately after the pulse, 1 ml of 1 M sorbitol was added to the cuvette and the cells were incubated for regeneration for 1 hour at room temperature. The cell suspension was aliquoted into two sterile Eppendorf tubes, 0.5 ml of YPD medium or MM medium was added, respectively, and the cells were incubated for 3 more hours at room temperature thereby being shaked. 50-200 μl of the aliquotes in YPD were spread on YPD-G418 plates to select G418 resistant transformants, whereas aliquots in MM medium were spread on MM-agar containing 0.02 μg/ml Soraphen A.
Histidine prototrophic or G418 resistant transformants were grown overnight in 20 ml MM medium. The cells were harvested by centrifugation and spotted onto MM plates containing different concentrations of Soraphen A (0-0.1 μg/ml). Duplicated plates were incubated at 30° C. for six days under daily addition of methanol.

CO[C@H]1CCCC[C@@H](c2ccccc2)OC(=O)[C@@H](C)[C@@]2(O)O[C@H]([C@@H](C)[C@H](O)[C@H]2OC)[C@@H](C)/C=C/[C@H]1OC [Soraphen A]
inhibition of MF-ACC activity in vitro [1]: inhibit | inhibition of MF-ACC activity in vitro [2]: inhibit | Soraphen A concentration giving no growth [3]: ≤ 0.02 µg/mL | sensitivity of MS-ACC to inhibition by Soraphen A (MS-ACC from E. coli): insensitive | MIC value (Ustilago zeae): 4 µg/mL (≈ 7.68 µM) | MIC values [4]: below 1 ug/ml | inhibition of acetyl-CoA carboxylase (ACC) activity [5]: inhibits | sensitivity to Soraphen (bacteria or prokaryotes): generally not sensitive | MIC value (Mucor hiemalis): 0.03 µg/mL (≈ 0.0576 µM) | Soraphen A concentration leading to complete inhibition of growth [6]: ≤ 0.02 µg/mL | Soraphen A concentration not inhibiting growth (undiminished growth) [7]: > 0.1 µg/mL | Soraphen A concentration up to which resistance is fully developed [8]: > 0.1 µg/mL
